Experimental findings from patent publication US11427556B2, “Urea derivatives as inhibitors of ASK1” (Hepagene Therapeutics (HK) Limited, priority 2017, dated 2022) are described below.

Broadly, the EC50 is the midpoint of the concentration-response curve.

In one test the target is T1, Recombinant human ASK1 kinase (Homo sapiens, UniProt Q99683).
T1 construct: purchased Invitrogen Inc
T1 sequence (Q99683 1-1374): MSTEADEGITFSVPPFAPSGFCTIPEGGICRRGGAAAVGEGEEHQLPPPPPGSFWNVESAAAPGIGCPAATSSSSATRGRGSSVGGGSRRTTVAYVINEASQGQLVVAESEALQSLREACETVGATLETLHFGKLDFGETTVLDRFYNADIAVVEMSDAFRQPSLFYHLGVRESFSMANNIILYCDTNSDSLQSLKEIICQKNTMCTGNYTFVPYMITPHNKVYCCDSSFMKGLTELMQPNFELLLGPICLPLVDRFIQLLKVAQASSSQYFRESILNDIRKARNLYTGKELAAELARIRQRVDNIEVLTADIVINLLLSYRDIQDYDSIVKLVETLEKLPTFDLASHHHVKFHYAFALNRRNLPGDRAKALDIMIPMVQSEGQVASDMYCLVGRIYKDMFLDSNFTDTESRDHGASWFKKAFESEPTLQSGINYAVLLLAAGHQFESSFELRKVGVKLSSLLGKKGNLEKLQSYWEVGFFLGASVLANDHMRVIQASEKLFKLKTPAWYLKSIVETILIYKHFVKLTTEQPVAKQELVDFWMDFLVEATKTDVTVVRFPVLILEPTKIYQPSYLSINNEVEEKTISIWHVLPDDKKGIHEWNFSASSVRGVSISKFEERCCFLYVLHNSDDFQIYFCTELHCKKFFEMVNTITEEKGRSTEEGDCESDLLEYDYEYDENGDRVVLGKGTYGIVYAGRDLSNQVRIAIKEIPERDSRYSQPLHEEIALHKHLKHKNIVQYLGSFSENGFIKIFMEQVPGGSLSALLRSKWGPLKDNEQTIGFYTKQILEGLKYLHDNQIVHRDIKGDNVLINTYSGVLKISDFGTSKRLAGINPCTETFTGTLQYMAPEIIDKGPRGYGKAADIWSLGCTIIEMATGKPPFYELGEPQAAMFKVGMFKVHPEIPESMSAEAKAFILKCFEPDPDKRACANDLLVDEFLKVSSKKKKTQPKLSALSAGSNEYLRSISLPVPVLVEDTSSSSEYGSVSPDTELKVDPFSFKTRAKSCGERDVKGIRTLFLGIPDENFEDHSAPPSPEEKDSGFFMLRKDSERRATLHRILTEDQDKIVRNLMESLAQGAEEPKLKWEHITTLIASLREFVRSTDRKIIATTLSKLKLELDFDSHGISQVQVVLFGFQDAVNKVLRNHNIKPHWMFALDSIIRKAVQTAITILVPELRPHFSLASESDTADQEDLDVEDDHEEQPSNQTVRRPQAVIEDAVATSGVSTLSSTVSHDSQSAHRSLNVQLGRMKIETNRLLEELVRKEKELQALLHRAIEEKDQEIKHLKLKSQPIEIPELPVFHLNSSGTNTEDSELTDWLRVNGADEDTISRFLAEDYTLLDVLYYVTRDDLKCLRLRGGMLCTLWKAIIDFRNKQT
The test can be described thus: ASK1 kinase HTRF assay (HTRF KinEASE-STK, phosphorylation of biotinylated peptide substrate). Format: biochemical.
Details: not given
The essentials: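 HTRF KinEASE-STK read-out of biotinylated peptide phosphorylation. Compound incubated with 3 nM ASK1 and 1 uM STK-substrate-biotin in kinase buffer containing 5 mM MgCl2 and 1 mM DTT.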
(In general: In TR-FRET formats the signal depends on donor and acceptor labels being close together.)
Consider `CC(C)n1cnnc1-c1cccc(NC(=O)Nc2cccnc2)n1` [Compound I-032], for which the concentration giving a half-maximal response (EC50) lay within 50 to 500 nM. Still for that read-out and setting: to `CC(C)n1cnnc1-c1cccc(NC(=O)Nc2cc(C(=O)N3CCCC3)ccn2)n1` [Compound I-145] belongs below 50 nM; to `CC(C)n1cnnc1-c1cccc(NC(=O)Nc2cc(C(=O)N3CCCCC3)ccn2)n1` [Compound I-109], below 50 nM.

Still in this test, the particulars now being: 3 nM ASK1 kinase, 1 uM STK-substrate-biotin, HTRF detection; read-out: EC50.
As to `C[C@@H]1CCCCN1C(=O)c1ccnc(NC(=O)Nc2cccc(-c3nncn3[C@H](C)CO)n2)c1` [Compound I-121], the EC50 is below 50 nM. On the same count and under the same terms, for `C[C@H](CO)n1cnnc1-c1cccc(NC(=O)Nc2cc(C(=O)N3CCc4ccccc4C3)ccn2)n1` [Compound I-122] the value was below 50 nM; for `CC(C)n1cnnc1-c1cccc(NC(=O)Nc2cc(C(=O)Nc3ccc(F)cc3)ccn2)n1` [Compound I-158], below 50 nM; for `CC(C)n1cnnc1-c1cccc(NC(=O)Nc2cc(NS(=O)(=O)c3ccccc3)ccn2)n1` [Compound I-015, 3-(4-Benzenesulfonamidopyridin-2-yl)-1-[6-[4-(propan-2-yl)-4H-1,2,4-triazol-3-yl]pyridin-2-yl]urea], below 50 nM.

As to `C[C@@H](CO)n1cnnc1-c1cccc(NC(=O)Nc2cc(-c3ccccc3)ccn2)n1` [Compound I-079], the EC50 is below 50 nM. On the same count and under the same terms, for `CC(C)n1cnnc1-c1cccc(NC(=O)Nc2ccc(N)cn2)n1` [Compound I-209] the value was below 50 nM. As for `C[C@H](CO)n1cnnc1-c1cccc(NC(=O)Nc2cc(C(=O)N3CCC4(CCCCC4)CC3)ccn2)n1` [Compound I-129], the concentration for a half-maximal effect (EC50) was below 50 nM.

On to `CNc1ccc(NC(=O)Nc2cccc(-c3nncn3C(C)C)n2)nc1` [Compound I-189], for which the EC50 is below 50 nM. Same read-out and setting: to `CC(C)n1cnnc1-c1cccc(NC(=O)Nc2cc(C(=O)N3CCCc4ccccc43)ccn2)n1` [Compound I-123] belongs below 50 nM; to `CC(C)n1cnnc1-c1cccc(NC(=O)Nc2ccc(OCc3ccccc3)cn2)n1` [Compound I-071], below 50 nM. Turning to `CC(C)n1cnnc1-c1cccc(NC(=O)Nc2cc(S(=O)(=O)N3CCCCC3)ccn2)n1` [Compound I-206], the EC50 was below 50 nM.

In the case of `Cc1ccc(NC(=O)Nc2cccc(-c3nncn3C(C)C)n2)cn1` [Compound I-041], the half-maximal effective concentration (EC50) is 50 to 500 nM. Still for that read-out and setting: for `CC(C)n1cnnc1-c1cccc(NC(=O)Nc2ncccc2-c2cccnc2)n1` [Compound I-082] the value was below 50 nM. On to `CC(C)n1cnnc1-c1cccc(NC(=O)Nc2ccc(C(C)(C)O)cn2)n1` [Compound I-214], for which the EC50 was below 50 nM. Regarding `Cc1cnc(NC(=O)Nc2cccc(-c3nncn3C(C)C)n2)cn1` [Compound I-056], the concentration giving a half-maximal response (EC50) was below 50 nM.

In the case of `CC(C)n1cnnc1-c1cccc(NC(=O)Nc2ccc(-c3ccccn3)cn2)n1` [Compound I-088], the EC50 was below 50 nM. On the same count and under the same terms, to `C[C@H](CO)n1cnnc1-c1cccc(N2CCN(c3ccc(-c4ccccc4)cn3)C2=O)n1` [Compound V-08] belongs below 50 nM; to `CC(C)n1cnnc1-c1cccc(N2CCN(c3ccc(N4CC5CCC(C4)O5)cn3)C2=O)n1` [Compound V-15], below 50 nM; to `CC(C)n1cnnc1-c1cccc(NC(=O)Nc2cc(C(=O)N3CCC(N4CCOCC4)CC3)ccn2)n1` [Compound I-130], below 50 nM.

As for `C[C@H](CO)n1cnnc1-c1cccc(NC(=O)Nc2cc(C(=O)Nc3ccc(F)cc3)ccn2)n1` [Compound I-159], the concentration for a half-maximal effect (EC50) was below 50 nM.

With `CC(C)n1cnnc1-c1cccc(-n2ccn(-c3ccc(C(=O)N4CCCCC4)cn3)c2=O)n1` [III-02, 1-(6-(4-Isopropyl-4H-1,2,4-triazol-3-yl)pyridin-2-yl)-3-(5-(piperidine-1-carbonyl)pyridin-2-yl)-1H-imidazol-2(3H)-one], the EC50 was below 50 nM. On the same count and under the same terms, to `CC(C)n1cnnc1-c1cccc(NC(=O)Nc2cc(C3CC3)ccn2)n1` [Compound I-047] belongs below 50 nM. Still for that read-out and setting: to `CC(C)n1cnnc1-c1cccc(N2CCN(c3ccc(N4CCOCC4)cc3)C2=O)n1` [Compound V-11] belongs below 50 nM.

`CC(C)n1cnnc1-c1cccc(NC(=O)Nc2ccc(N3CCOCC3)cn2)n1` [Compound I-093]: the concentration for a half-maximal effect (EC50) was below 50 nM. In the case of `CC(C)n1cnnc1-c1cccc(NC(=O)Nc2cc(C3CCNCC3)ccn2)n1` [Compound I-050], the 50% effective concentration (EC50) was below 50 nM. Still for that read-out and setting: for `C[C@H](CO)n1cnnc1-c1cccc(NC(=O)Nc2ccccn2)n1` [Compound I-026] the value was below 50 nM; for `CC(C)n1cnnc1-c1cccc(NC(=O)Nc2ncccn2)n1` [Compound I-212], below 50 nM. Take `CC(C)n1cnnc1-c1cccc(NC(=O)Nc2cc3cc(N4CCNCC4)ccc3cn2)n1` [Compound I-065]: the EC50 was 50 to 500 nM. On the same count and under the same terms, for `CC(C)n1cnnc1-c1cccc(NC(=O)Nc2ncco2)n1` [Compound I-215] the value was below 50 nM.
